Measured values from patent publication US8076338B2, “Kinase modulators and methods of use” (Exelixis, Inc., priority 2004, dated 2011).
Like-named read-outs stand apart in the source and are kept apart here.

Tests used:
AktK = AktK (Homo sapiens, UniProt P31749); experiment: Luciferase-coupled chemiluminescence kinase assay (ATP consumption); format: biochemical; conditions: read-out: AKT-1 IC50
Procedure, shortened: (§1)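 Activity is read as ATP depletion: luciferase-luciferin reagent added after a 3 h ambient-temperature kinase reaction, with total ATP use limited to 25-60%. Before ATP addition, 2.5-5 nM kinase and compound were preincubated 30 min in Tris pH 7.5/MgCl2/TX-100/DTT buffer; […].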

p70S6K = p70S6K (Homo sapiens, UniProt P23443); experiment: as above; format: biochemical
Procedure, shortened: as §1

AktK, sequence (P31749 whole entry): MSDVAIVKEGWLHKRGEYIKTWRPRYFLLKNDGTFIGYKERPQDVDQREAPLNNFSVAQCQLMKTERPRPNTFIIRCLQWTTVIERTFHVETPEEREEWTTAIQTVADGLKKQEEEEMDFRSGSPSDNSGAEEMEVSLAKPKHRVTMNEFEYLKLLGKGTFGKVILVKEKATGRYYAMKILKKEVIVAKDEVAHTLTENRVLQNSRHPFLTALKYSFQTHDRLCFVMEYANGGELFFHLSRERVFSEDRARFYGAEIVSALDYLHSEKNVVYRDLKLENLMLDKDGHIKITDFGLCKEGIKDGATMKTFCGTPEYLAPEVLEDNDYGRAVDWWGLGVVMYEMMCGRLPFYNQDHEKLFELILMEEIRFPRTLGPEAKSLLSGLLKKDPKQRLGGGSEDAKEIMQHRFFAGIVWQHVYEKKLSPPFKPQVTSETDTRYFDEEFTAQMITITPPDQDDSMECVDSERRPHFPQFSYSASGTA
p70S6K, sequence (P23443 whole entry): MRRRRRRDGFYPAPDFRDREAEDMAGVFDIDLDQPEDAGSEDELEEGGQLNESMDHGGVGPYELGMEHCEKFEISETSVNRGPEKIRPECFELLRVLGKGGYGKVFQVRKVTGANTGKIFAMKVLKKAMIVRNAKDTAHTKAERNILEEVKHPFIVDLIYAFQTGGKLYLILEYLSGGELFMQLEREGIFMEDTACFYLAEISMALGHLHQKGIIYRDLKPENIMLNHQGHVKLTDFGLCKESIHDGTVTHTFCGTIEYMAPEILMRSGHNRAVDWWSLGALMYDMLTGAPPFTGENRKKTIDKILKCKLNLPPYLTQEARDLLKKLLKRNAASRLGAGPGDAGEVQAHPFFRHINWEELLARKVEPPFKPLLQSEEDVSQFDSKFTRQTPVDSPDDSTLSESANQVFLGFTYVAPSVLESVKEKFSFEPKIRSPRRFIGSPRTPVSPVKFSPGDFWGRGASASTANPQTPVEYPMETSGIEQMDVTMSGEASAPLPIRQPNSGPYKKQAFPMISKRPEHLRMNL

| IC50 (AktK; Table 1, class symbols per key) | IC50 (p70S6K; Table 1, class symbols per key) | IC50 (AktK) | IC50 (p70S6K) | Structure (SMILES) |
| --- | --- | --- | --- | --- |
| < 100 nM | < 100 nM | – | – | CCCC(=O)c1cc(NCCN2CCCC2)cc(N2CCN(c3ncnc4[nH]nc(Br)c34)CC2)c1 [Entry 283, 1-{3-[4-(3-bromo-1H-pyrazolo[3,4-d]pyrimidin-4-yl)piperazin-1-yl]-5-[(2-pyrrolidin-1-ylethyl)amino]phenyl}butan-1-one] |
| – | – | 1000 to 10000 nM | < 100 nM | Cc1ccc(Cl)cc1N1CCN(c2ncnc3[nH]nc(-c4cccs4)c23)CC1 [Entry 338, 4-[4-(5-chloro-2-methylphenyl)piperazin-1-yl]-3-(2-thienyl)-1H-pyrazolo[3,4-d]pyrimidine] |
| 100 to 1000 nM | < 100 nM | – | – | Cc1c(OCCN2CCN(C)CC2)cc(Cl)cc1N1CCN(c2ncnc3[nH]nc(Br)c23)CC1 [Entry 72, 3-bromo-4-[4-(5-chloro-2-methyl-3-{[2-(4-methylpiperazin-1-yl)ethyl]oxy}phenyl)piperazin-1-yl]-1H-pyrazolo[3,4-d]pyrimidine] |
| ≥ 10000 nM | 100 to 1000 nM | – | – | CCc1n[nH]c2ncnc(N3CCN(c4cc(F)ccc4F)CC3)c12 [Entry 132, 4-[4-(2,5-difluorophenyl)piperazin-1-yl]-3-ethyl-1H-pyrazolo[3,4-d]pyrimidine] |
| – | – | ≥ 10000 nM | 1000 to 10000 nM | CCc1n[nH]c2ncnc(N3CCN(c4cccc(Cl)c4)CC3C(=O)OC)c12 (centres unmarked) [Entry 349, methyl 4-(3-chlorophenyl)-1-(3-ethyl-1H-pyrazolo[3,4-d]pyrimidin-4-yl)piperazine-2-carboxylate] |
| 100 to 1000 nM | < 100 nM | – | – | Cc1c(OCCN2CCCCC2)cc(Cl)cc1N1CCN(c2ncnc3[nH]nc(Br)c23)CC1 [Entry 20, 3-bromo-4-(4-{5-chloro-2-methyl-3-[(2-piperidin-1-ylethyl)oxy]phenyl}piperazin-1-yl)-1H-pyrazolo[3,4-d]pyrimidine] |
| – | – | 1000 to 10000 nM | < 100 nM | CCc1n[nH]c2ncnc(N3CCN(c4cc(Cl)cc(OCCN(C)C)c4OC)CC3)c12 [Entry 384, 2-{[5-chloro-3-[4-(3-ethyl-1H-pyrazolo[3,4-d]pyrimidin-4-yl)piperazin-1-yl]-2-(methyloxy)phenyl]oxy}-N,N-dimethylethanamine] |
| 100 to 1000 nM | < 100 nM | – | – | CCN1CCN(CCCOc2cc(Cl)cc(N3CCN(c4ncnc5[nH]nc(C(F)(F)F)c45)CC3)c2C)CC1 [Entry 71, 4-[4-(5-chloro-3-{[3-(4-ethylpiperazin-1-yl)propyl]oxy}-2-methylphenyl)piperazin-1-yl]-3-(trifluoromethyl)-1H-pyrazolo[3,4-d]pyrimidine] |
| < 100 nM | < 100 nM | – | – | Cc1c(NCCN(C)C)cc(C(=O)Nc2ccccc2)cc1N1CCN(c2ncnc3[nH]nc(Br)c23)CC1 [Entry 225, 3-[4-(3-bromo-1H-pyrazolo[3,4-d]pyrimidin-4-yl)piperazin-1-yl]-5-{[2-(dimethylamino)eth-yl]amino}-4-methyl-N-phenylbenzamide] |
| < 100 nM | < 100 nM | – | – | Cc1c(CCCN2CCCC2)cc(Cl)cc1N1CCN(c2ncnc3[nH]nc(/C=C/C(=O)O)c23)CC1 [Entry 181, (2E)-3-(4-{4-[5-chloro-2-methyl-3-(3-pyrrolidin-1-ylpropyl)phenyl]piperazin-1-yl}-1H-pyrazolo[3,4-d]pyrimidin-3-yl)prop-2-enoic acid] |
| – | – | 1000 to 10000 nM | 100 to 1000 nM | CCc1n[nH]c2ncnc(N3CCN(c4cc(Cl)c(OCCN(C)C)cc4C)CC3)c12 [Entry 389, 2-({2-chloro-4-[4-(3-ethyl-1H-pyrazolo[3,4-d]pyrimidin-4-yl)piperazin-1-yl]-5-methylphenyl}oxy)-N,N-dimethylethanamine] |
| 100 to 1000 nM | < 100 nM | – | – | CCc1n[nH]c2ncnc(N3CCN(c4cc(OCC(F)(CF)CF)cc(Br)c4C)CC3)c12 [Entry 251, 4-[4-(3-bromo-5-{[2,3-difluoro-2-(fluorometh-yl)propyl]oxy}-2-methylphenyl)piperazin-1-yl]-3-ethyl-1H-pyrazolo[3,4-d]pyrimidine] |
| ≥ 10000 nM | 100 to 1000 nM | – | – | Fc1ccc(N2CCN(c3ncnc4[nH]nc(Br)c34)CC2)cc1 [Entry 153, 3-bromo-4-[4-(4-fluorophenyl)piperazin-1-yl]-1H-pyrazolo[3,4-d]pyrimidine] |
| 100 to 1000 nM | < 100 nM | – | – | Cc1c(OCCCN2CCN(C)CC2)cc(Cl)cc1N1CCN(c2ncnc3[nH]nc(C(F)(F)F)c23)CC1 [Entry 70, 4-[4-(5-chloro-2-methyl-3-{[3-(4-methylpiperazin-1-yl)propyl]oxy}phenyl)piperazin-1-yl]-3-(trifluoromethyl)-1H-pyrazolo[3,4-d]pyrimidine] |
| – | – | 1000 to 10000 nM | 1000 to 10000 nM | Cc1ccc(Cl)cc1N1CCN(c2ncnc3[nH]nc(-c4cccc(C(=O)O)c4)c23)CC1 [Entry 340, 3-{4-[4-(5-chloro-2-methylphenyl)piperazin-1-yl]-d1H-pyrazolo[3,4-]pyrimidin-3-yl}benzoic acid] |

| Structure (SMILES) | IC50 (AktK; Table 1, class symbols per key) | IC50 (p70S6K; Table 1, class symbols per key) | IC50 (AktK) | IC50 (p70S6K) |
| --- | --- | --- | --- | --- |
| CCc1n[nH]c2ncnc(N3CCN(c4cc(OCC(C)C)cc(NCCN5CCCC5)c4C)CC3)c12 [Entry 172, 3-[4-(3-ethyl-1H-pyrazolo[3,4-d]pyrimidin-4-yl)piperazin-1-yl]-2-methyl-5-[(2-methyl-propyl)oxy]-N-(2-pyrrolidin-1-ylethyl)aniline] | < 100 nM | < 100 nM | – | – |
| Cc1c(NCCN2CCCC2)cc(CCC(C)(C)C)cc1N1CCN(c2ncnc3[nH]nc(Br)c23)CC1 [Entry 244, 3-[4-(3-bromo-1H-pyrazolo[3,4-d]pyrimidin-4-yl)piperazin-1-yl]-5-(3,3-dimethylbutyl)-2-methyl-N-(2-pyrrolidin-1-ylethyl)aniline] | < 100 nM | < 100 nM | – | – |
| Clc1cc(NCCN2CCCC2)cc(N2CCN(c3ncnc4[nH]nc(Br)c34)CC2)c1 [Entry 267, 3-[4-(3-bromo-1H-pyrazolo[3,4-d]pyrimidin-4-yl)piperazin-1-yl]-5-chloro-N-(2-pyrrolidin-1-ylethyl)aniline] | < 100 nM | < 100 nM | – | – |
| Cc1c(NCCN2CCCC2)cc(OC(F)F)cc1N1CCN(c2ncnc3[nH]nc(Br)c23)CC1 [Entry 253, 3-[4-(3-bromo-1H-pyrazolo[3,4-d]pyrimidin-4-yl)piperazin-1-yl]-5-[(difluoromethyl)oxy]-2-methyl-N-(2-pyrrolidin-1-ylethyl)aniline] | < 100 nM | < 100 nM | – | – |
| COCCOc1cc(NCCN2CCCC2)c(C)c(N2CCN(c3ncnc4[nH]nc(Br)c34)CC2)c1 [Entry 223, 3-[4-(3-bromo-1H-pyrazolo[3,4-d]pyrimidin-4-yl)piperazin-1-yl]-2-methyl-5-{[2-(methyl-oxy)ethyl]oxy}-N-(2-pyrrolidin-1-ylethyl)aniline] | 100 to 1000 nM | < 100 nM | – | – |
| Cc1c(NCCN2CCCC2)cc(CCc2ccccc2)cc1N1CCN(c2ncnc3[nH]nc(Br)c23)CC1 [Entry 247, 3-[4-(3-bromo-1H-pyrazolo[3,4-d]pyrimidin-4-yl)piperazin-1-yl]-2-methyl-5-(2-phenylethyl)-N-(2-pyrrolidin-1-ylethyl)aniline] | < 100 nM | < 100 nM | – | – |
| Cc1c(NCCN2CCCC2)cc(Cl)cc1N1CCN(c2ncnc3[nH]nc(CC(C)C)c23)CC1 [Entry 162, 5-chloro-2-methyl-3-{4-[3-(2-methylpropyl)-1H-pyrazolo[3,4-d]pyrimidin-4-yl]piperazin-1-yl}-N-(2-pyrrolidin-1-ylethyl)aniline] | 100 to 1000 nM | < 100 nM | – | – |
